Columns and labels:
Brown Norway rats, STZ = assay: Diabetic retinopathy prevention study in STZ treated rat (IVT); assay type: in vivo; settings: 0.2 and 2 μg/eye IVT
Source text: The objective of this study was to determine the ability of XG-102 to prevent diabetic retinopathy when administered by intravitreal injections to streptozotocin (STZ)-treated (hyperglycemic) rats.
Sterile vials containing 0.0412 g of inducing agent (STZ) were pre-weighed, sealed and transferred to the dosing room for administration to Groups 2 to 4 animals and Spares on Day −7. A duplicate set of empty, appropriately labeled sterile vials were provided. The reconstituted STZ solution was filtered into these vials for dosing. The Reference Item, 0.9% NaCl, was administered as received. XG-102 was prepared using the correction factor 1.383. A stock solution equal to the highest dose level was prepared in vehicle, 0.9% Sodium Chloride for Injection, and sterile filtered through a 0.22 μm polyvinylidene difluoride (PVDF) filter. The lower dose levels were prepared by directly diluting the stock solution. Dose formulations were prepared once at appropriate concentrations to meet dosage level requirements. All dilutions were prepared by directly diluting the stock solution with vehicle. Three dosing aliquots (Days 1, 8 and 15) were prepared and stored in a freezer set to maintain −20° C. Aliquot(s) of each dose level were thawed at ambient temperature on each day of dosing and the solution maintained at room temperature for no longer than 6 hours. […]

[1] = system: HCT 116 human colon tumor; assay: Orthotopic HCT 116 human colon tumors in SCID mice; assay type: in vivo
Procedure: The objective of this study was to determine the effect of XG-102 on the growth of HCT 116 human colon tumor orthotopically xenografted in SCID mice.
For XG-102 administration the required amount of XG-102 was dissolved in the vehicle. The formulation was prepared according to the procedure detailed below. Concentrations were calculated and expressed taking into account test item purity and peptide content (multiplier coefficient was 74.6%). […] Diluted solutions were maintained on ice until use. Unused material was discarded. XG-102 was injected once daily at 0.1 and 1 mg/kg/inj. for a total of fourteen consecutive administrations (Q1Dx14). The routes of substance administrations were: injected subcutaneously (SC) at 5 ml/kg/inj., administered per os (PO) to mice by oral gavage via a cannula at 5 ml/kg/adm. The injection and administration volumes were adapted, according to the daily individual body weight of mice.
Twenty four to Forty-eight hours before tumor induction, 5 SCID mice were irradiated with a γ-source (1.8 Gy, Co^60, INRA, Dijon, France). Ten millions (10^7) HCT 116 cells suspended in 200 μl of RPMI medium were subcutaneously injected in the right flank of the 5 female SCJD mice. When tumors reached 1000-2000 mm^3, mice were sacrificed. Tumors were surgically excised from the animal to obtain fresh tumor fragments (20-30 mg) to be orthotopically implanted on the caecum of 75 mice at D0.
Twenty four to forty-eight hours before tumor implantation, 75 SCID mice were irradiated with a γ-source (1.8 Gy, Co^60, INRA, Dijon, France). The surgery was performed in the afternoon, with a minimum delay of two hours after the 7th XG-102 treatment. The abdomen from anaesthetized animal was opened through a median incision under aseptic conditions. The caecum was exteriorized and a small lesion was performed on caecum wall. The tumor fragment was placed on lesion and fixed with 6/0 sutures. The abdominal cavity was subsequently closed in 2 layers with 4/0 sutures.
At D-7, mice were randomized according to their body weight before treatment start to form 5 groups of 15 mice. The body weight of each group was not statistically different from the others (analysis of variance). The treatment began at D-7 according to following treatment schedule: • Mice from group 1 received one PO administration of XG-102 vehicle at 5 ml/kg/inj. once daily for a total of fourteen consecutive administrations (Q 1 Dx14), • Mice from group 2 received one PO administration of XG-102 at 0.1 mg//kg/inj. once daily for a total of fourteen consecutive administrations (QI Dx14), • Mice from group 3 received one PO administration of XG-102 at 1 mg//kg/inj. Once daily for a total of fourteen consecutive administrations (Q1Dx14), • Mice from group 4 received one SC injection of XG-102 at 0.1 mg//kg/inj. once daily for a total of fourteen successive administrations (Q1Dx14), • Mice from group 5 received one SC injection of XG-102 at 1 mg//kg/inj. once daily for a total of fourteen consecutive administrations (Q1Dx14):
Mice were monitored every day throughout the study for behaviour and survival. The body weight and tumor volume was monitored twice a week for all mice throughout the study. Isoflurane® Forene (Centravet, Bondoufle, France) was used to anaesthetize the animals before cell injection, surgery (orthotopic tumor implantation) and sacrifice.
Mice were sacrificed at D26. […] Invasion of liver by tumor nodules was evaluated macroscopically. […]

CC(C)C[C@@H](NC(=O)[C@@H](Cc1ccccc1)NC(=O)[C@H]1CCCN1C(=O)[C@@H](CCC(N)=O)NC(=O)[C@H](NC(=O)[C@H]1CCCN1C(=O)[C@@H](CCCNC(=N)N)NC(=O)[C@@H](CO)NC(=O)[C@@H](CCC(N)=O)NC(=O)[C@H](N)CC(=O)O)C(C)C)C(=O)N[C@H](CC(N)=O)C(=O)N[C@H](CC(C)C)C(=O)N[C@@H](C(=O)N[C@@H](C(=O)N1CCC[C@@H]1C(=O)N[C@H](CCCNC(=N)N)C(=O)N[C@H](CCCCN)C(=O)N1CCC[C@@H]1C(=O)N[C@H](CCCNC(=N)N)C(=O)N1CCC[C@@H]1C(=O)N1CCC[C@@H]1C(=O)N[C@H](CCCNC(=N)N)C(=O)N[C@H](CCCNC(=N)N)C(=O)N[C@H](CCCNC(=N)N)C(=O)N[C@H](CCC(N)=O)C(=O)N[C@H](CCCNC(=N)N)C(=O)N[C@H](CCCNC(=N)N)C(=O)N[C@H](CCCCN)C(=O)N[C@H](CCCCN)C(=O)N[C@H](CCCNC(=N)N)C(=O)NCC(=O)O)[C@H](C)O)[C@H](C)O [XG-102]
clinical signs, body weights, food consumption (Brown Norway rats, STZ): no XG-102-related clinical signs or effects on body weights, body weight gains or food consumption | deaths (Brown Norway rats, STZ): no XG-102-related deaths during the study | percentage of death D0 to D9 (surgery complications) ([1]; 1st treated group listed (PO 0.1 mg/kg, order assumed)): 40% | percentage of death D0 to D9 (surgery complications) ([1]; 2nd treated group listed (PO 1 mg/kg, order assumed)): 34% | percentage of death D0 to D9 (surgery complications) ([1]; 3rd treated group listed (SC 0.1 mg/kg, order assumed)): 47% | percentage of death D0 to D9 (surgery complications) ([1]; 4th treated group listed (SC 1 mg/kg, order assumed)): 40% | MBWC at D-2 ([1]; PO 0.1 mg/kg/adm.): +7.1±4.6%

Reference: patent US11779628B2, “Use of cell-permeable peptide inhibitors of the JNK signal transduction pathway for the treatment of various diseases” (Xigen Inflammation Ltd., priority 2014, dated 2023)
